The text below walks through data of patent US5608095A, “Alkyl-4-silyl-phenols and esters thereof as antiatherosclerotic agents” (Hoechst Marion Roussel, Inc., priority 1996, dated 1997).

Where two headings read alike, the source gives them in different places.

One data set concerns VCAM-1. Put plainly: Cell surface ELISA for VCAM-1 in human umbilical vein endothelial cells (HUVEC), TNF-alpha induced. The format is cell-based. Conditions: 50 μM, average of three runs. As for the experimental part:
Cell Surface ELISA for VCAM-1/ICAM-1
Proliferating human umbilical vein endothelial cells (HUVEC) or human aortic smooth muscle cells (HASMC) from Clonetics (San Diego, Calif.) were plated onto 96-well plates in 100 μL medium per well at 20,000 cells per cm^2. The cultures were maintained in growth medium (EGM or SMGM2, Clonetics, San Diego, Calif.) for two days prior to addition of cytokines or drugs. Cytokines plus or minus compounds were added for 20 to 24 hours prior to analysis for adhesion molecule levels. Tumor necrosis factor (Genzyme, Cambridge, Mass.) was added to cultures at 500-1000 units/mL. Interleukin-4 (GIBCO-BRL, Gaithersburg, Md.) was added to cultures at 100-200 pg/mL. (Additions were made by transferring 100 [μL of cytokines plus compounds serially diluted on a separate 96-well plate into the plates containing cells. The medium on the cultures was not exchanged prior to addition of effectors). The culture medium was removed, and the monolayers were washed twice with Hanks buffered saline solution (HBSS) at room temperature. The primary antibody (anti-human VCAM-1 from Upstate Biotechnology, Inc., Lake Placid, N.Y. or anti-human ICAM-1 from Immunotech, Inc., Westbrook, Me.) was added to each well (1 μg/mL in HBSS plus 5% newborn calf serum, GIBCO-BRL, Gaithersburg, Md.) and incubated at 37° C. for 1 hr. The wells were washed twice with HBSS, then 100 μL of a 1/1000 dilution of goat anti-mouse IgG conjugated to horse radish peroxidase (BioRad, Hercules, Calif.) in HBSS plus 5% newborn calf serum was added to each well and incubated for 1 hr at 37° C. The wells were washed three times with HBSS, then 100 μL of TMB substrate (BioRad, Hercules, Calif.) was added to each well. The reaction was stopped after blue color developed by addition of 50 μL of 1N H2 SO4. Absorbance is measured at 450 nm with a plate reader. IC50 values were determined from curves of absorbance values obtained from serial dilutions of compounds (dissolved in dimethyl sulfoxide).
The IC50 value is defined as the drug concentration that inhibits the cytokine-induced adhesion molecule expression by 50%. Maximal values for adhesion molecule expression in cytokine-induced cultures was […] the basal level of adhesion molecule expression (minus cytokines) in the cultures to determine the level of induction. […] Each drug concentration was tested in quadruplicate wells. Single point tests of compounds at 50 μM were assayed as described for IC50 determinations, except that the data represent the level of inhibition without correction for basal expression. (Basal adhesion molecule expression was 10-20% of the total induced expression). Table 1 summarizes the ability of various compounds of this invention to inhibit VCAM-1 using human aortic smooth muscle cells (HASMC). In these experiments, the cells were coincubated with interleukin-4 and the compounds listed about 20 hr before assaying cell surface VCAM-1 levels. Each column represents a separate experiment.
In these experiments, the cells were coincubated with tumor necrosis factor-alpha along with the indicated compounds about 20 to 24 hr before assaying cell surface adhesion molecule expression.

Data set [1] is described as follows: Clinical chemistries in serum of rats. The class given is in vivo, male Sprague-Dawley rats. Conditions: for response vs control in vivo at 0.1 % / response vs control in vivo at 0.3 %: po, 96 h. An excerpt: A typical experiment consisted of 4-6 groups of rats (N=5 per group) with 1 group being a control which received no MDL compound and the other groups being treated with 0.3% MDL compound. Some of the compounds were either repeated at 0.3% or evaluated again at the lower dose of 0.1%. Male Sprague-Dawley rats, 50-100 g, (Harlan Laboratories, Indianapolis, Ind.) were housed in groups of 5, fed ad libitum water and Purina Rodent chow (#5002) with or without MDL compound as a dietary admixture for 4 days. Dietary admixtures (0.3%) were made by mixing 1.2 grams of an MDL compound with 400 grams of Purina rodent chow (#5002). The MDL compound was mixed with approximately 50 grams of food using a mortar and pestle. This was added to the remainder of the food and mixed for 3 hours on a rotary mixer. In the morning of day 5, non-fasted rats were anesthetized with carbon dioxide, and blood was collected by cardiac puncture. Rats were sacrificed by cervical dislocation. Body weights and liver weights were recorded in grams. Food consumption was recorded as grams.cndot.day^-1.cndot.rat^-1. Deaths were recorded as mortality. Aliquots of fresh serum were used for clinical chemistries, thiobarbituric acid reactive substances (TBARS) and conjugated diene measurements. Aliquots of serum (~0.5mL) and whole livers were frozen at -20° C. for compound and metabolite concentration determination at a later time.
Blood was allowed to clot at room temperature for 30 minutes. Serum was obtained after centrifugation for 10 min at 4° C. at 3000 rpm in a Beckman J-6M/E centrifuge with a JS-4.2 rotor. Fresh serum was analyzed by a COBAS MIRA S autoanalyzer (Roche Diagnostics) using Roche diagnostic reagents for the following clinical chemistry measurements: alkaline phosphatase (ALP, kit #44553), alanine transaminase (ALT, kit #42375), aspartate aminotransferase (AST, kit #42381), total cholesterol (CHOL, kit #44334), triglyceride (TG, kit #44120), and glucose (GLU, kit #44558). ALP, ALT, and AST were calculated as units/L. Cholesterol, triglycerides, and glucose were calculated as mg/dL.

Setting [2] is: rat serum, diet 0.1%, 4 days, read-out: CHOL (total cholesterol), percent of control.
Setting [3] is: rat serum, diet 0.1%, 4 days, read-out: TRIG (triglycerides), percent of control.
[4] abbreviates: rat serum, diet 0.3%, 4 days, read-out: CHOL (total cholesterol), percent of control.
[5] abbreviates: rat serum, diet 0.3%, 4 days, read-out: TRIG (triglycerides), percent of control.
[6] abbreviates: Rattus norvegicus, read-out: CHOL (total cholesterol), percent of control.
[7] abbreviates: Rattus norvegicus, read-out: TRIG (triglycerides), percent of control.

Molecule `CC(=O)Oc1ccc(OC[Si](C)(C)c2ccccc2)cc1C(C)(C)C` [MDL 105,443, 2-t-Butyl-4-[(dimethylphenylsilyl)methyloxy]phenol acetic acid ester] had a VCAM-1 % inh. in the data set with VCAM-1 of 3.0%. Also, the response vs control in vivo at 0.1 % in data set [1] (setting [2]) amounted to 111%. Moreover, the response vs control in vivo at 0.1 % in data set [1] (setting [3]) came out at 111%. In addition, the response vs control in vivo at 0.3 % in data set [1] (setting [4]) was 131%. Moreover, the response vs control in vivo at 0.3 % in data set [1] (setting [5]) worked out at 126%. Also, in data set [1] (rat serum, diet 0.1%, 4 days), the “ALP (alkaline phosphatase), percent of control” value (from here on “ALP … percent of control”) came out at 101%; the “ALT (alanine aminotransferase), percent of control” value (from here on “ALT … percent of control”) was 116%; the “AST (aspartate aminotransferase), percent of control” value (from here on “AST … percent of control”) amounted to 94%; the “GLUC (glucose), percent of control” value is on record as 106%. In data set [1] (rat serum, diet 0.3%, 4 days), the “ALP … percent of control” value is given as 90%; the “ALT … percent of control” value turned out to be 156%; the “AST … percent of control” value stood at 171%; the “GLUC (glucose), percent of control” value is 98%.
As to `CC(=O)Oc1c(C(C)(C)C)cc(OC[Si](C)(C)c2ccccc2)cc1C(C)(C)C` [MDL 103,377, 2,6-Di-t-butyl-4-[(dimethylphenylsilyl)methyloxy]phenol acetic acid ester], in the data set on VCAM-1, the VCAM-1 % inh. came out at 18.3%. The response vs control in vivo at 0.3 % in data set [1] (setting [4]) was determined as 93%. Moreover, in data set [1] (setting [5]), the response vs control in vivo at 0.3 % came to 85%. Besides, in data set [1] (rat serum, diet 0.3%, 4 days), the “ALP … percent of control” value is on record as 147%; the “ALT … percent of control” value is reported as 145%; the “AST … percent of control” value came to 149%; the “GLUC (glucose), percent of control” value was found to be 102%.
`CC(C)(C)c1cc(OC[Si](C)(C)c2ccc(C(F)(F)F)cc2)cc(C(C)(C)C)c1O` [MDL 105,975, 2,6-Di-t-butyl-4-[(dimethyl-4-trifluoromethylphenylsilyl)methyloxy]phenol] displayed a VCAM-1 % inh. with VCAM-1 of 6.3%. Further, in data set [1] (setting [6]), the response vs control in vivo at 0.1 % is 98% and the response vs control in vivo at 0.3 % is 122%. Also, in data set [1] (setting [7]), the response vs control in vivo at 0.1 % was found to be 108% and the response vs control in vivo at 0.3 % came out at 107%. Further, in data set [1] (rat serum, diet 0.1%, 4 days), the “ALP … percent of control” value amounted to 112%; the “ALT … percent of control” value turned out to be 96%; the “AST … percent of control” value was found to be 89%; the “GLUC (glucose), percent of control” value was 110%. Also, in data set [1] (rat serum, diet 0.3%, 4 days), the “ALP … percent of control” value is listed as 105%; the “ALT … percent of control” value was 106%; the “AST … percent of control” value is listed as 122%; the “GLUC (glucose), percent of control” value amounted to 106%.
The molecule `CC(C)(C)c1cc(OC[Si](C)(c2ccccc2)c2ccccc2)cc(C(C)(C)C)c1O` [MDL 104,599, 2,6-Di-t-butyl-4-[(diphenylmethylsilyl)methloxy]phenol] displayed a VCAM-1 % inh. in the data set with VCAM-1 of 12.3%. In data set [1] (setting [4]), the response vs control in vivo at 0.3 % was found to be 94%. Besides, the response vs control in vivo at 0.3 % in data set [1] (setting [5]) is 100%. Besides, in data set [1] (rat serum, diet 0.3%, 4 days), the “ALP … percent of control” value is recorded as 110%; the “ALT … percent of control” value stood at 91%; the “AST … percent of control” value was 76%; the “GLUC (glucose), percent of control” value came out at 111%.
Turning to `COc1ccc([Si](C)(C)COc2ccc(O)c(C(C)(C)C)c2)cc1` [MDL 106,834, 2-t-Butyl-4-[(dimethyl-p-methoxylphenylsilyl)methyloxy]phenol], the response vs control in vivo at 0.3 % in data set [1] (setting [4]) was 150%. In addition, the response vs control in vivo at 0.3 % in data set [1] (setting [5]) stood at 83%. Also, in data set [1] (rat serum, diet 0.3%, 4 days), the “ALP … percent of control” value amounted to 69%; the “ALT … percent of control” value is on record as 141%; the “AST … percent of control” value is recorded as 122%; the “GLUC (glucose), percent of control” value came to 95%.
Turning to `CC(C)(C)c1cc(SC[Si](C)(C)c2ccccc2)cc(C(C)(C)C)c1OC(=O)CCC(=O)O` [MDL 103,141, 2,6-Di-t-butyl-4-[(dimethylphenylsilyl)methylthio]phenol sucinic acid ester], the VCAM-1 % inh. with VCAM-1 is 1.3%. Moreover, the response vs control in vivo at 0.3 % in data set [1] (setting [6]) stood at 119%. The response vs control in vivo at 0.3 % in data set [1] (setting [7]) came to 47%. Besides, in data set [1] (rat serum, diet 0.3%, 4 days), the “ALP … percent of control” value was 147%; the “ALT … percent of control” value was found to be 126%; the “AST … percent of control” value was determined as 120%; the “GLUC (glucose), percent of control” value is on record as 107%.
In the data set with VCAM-1, `Cc1cc(OC[Si](C)(C)c2ccccc2)c(C)c(C)c1O` [MDL 105,314, 2,3,6-Trimethyl-4-[(dimethylphenylsdilyl)methloxy]phenol] yielded a VCAM-1 % inh. of 10.7%. Moreover, the response vs control in vivo at 0.3 % in data set [1] (setting [6]) worked out at 110%. Moreover, the response vs control in vivo at 0.3 % in data set [1] (setting [7]) was 78%. Also, in data set [1] (rat serum, diet 0.3%, 4 days), the “ALP … percent of control” value is recorded as 154%; the “ALT … percent of control” value is reported as 113%; the “AST … percent of control” value is 76%; the “GLUC (glucose), percent of control” value amounted to 115%.
`CC(C)(C)c1cc(OC[Si](C)(C)c2ccccc2)ccc1O` [MDL 103,491, 2-t-Butyl-4-[(dimethylphenylsilyl)methyloxy]phenol]: the VCAM-1 % inh. in the data set on VCAM-1 turned out to be 12.0%. In addition, the response vs control in vivo at 0.1 % in data set [1] (setting [2]) amounted to 112%. The response vs control in vivo at 0.1 % in data set [1] (setting [3]) was 92%. For the same molecule, the response vs control in vivo at 0.3 % in data set [1] (setting [4]) was 146%. Further, in data set [1] (setting [5]), the response vs control in vivo at 0.3 % is 131%. Besides, in data set [1] (rat serum, diet 0.1%, 4 days), the “ALP … percent of control” value worked out at 116%; the “ALT … percent of control” value was determined as 133%; the “AST … percent of control” value was found to be 94%; the “GLUC (glucose), percent of control” value is given as 101%. In data set [1] (rat serum, diet 0.3%, 4 days), the “ALP … percent of control” value amounted to 80%; the “ALT … percent of control” value was determined as 127%; the “AST … percent of control” value came out at 114%; the “GLUC (glucose), percent of control” value is 94%.
`CC(C)(C)c1cc(OC[Si](C)(C)c2ccccc2)c(C(C)(C)C)cc1O` [MDL 104,962, 2,5-Di-t-butyl-4-[(dimethylphenylsilyl)methyloxy]phenol]: the response vs control in vivo at 0.3 % in data set [1] (setting [4]) was 99%. The response vs control in vivo at 0.3 % in data set [1] (setting [5]) is 74%. Also, in data set [1] (rat serum, diet 0.3%, 4 days), the “ALP … percent of control” value was 130%; the “ALT … percent of control” value was determined as 112%; the “AST … percent of control” value is on record as 109%; the “GLUC (glucose), percent of control” value turned out to be 91%.
